Experimental data published in patent publication US10174053B2, “2 substituted cephem compounds” (Glaxo Group Limited, priority 2012, dated 2019).
Values after ≈ are worked out from the molar mass of the structure shown. Like-named read-outs stand apart in the source and are kept apart here.

Columns and labels:
Experiment in all cases: In vitro antimicrobial activity, MIC by broth microdilution (CLSI)
Assay type in all cases: cell-based
A. baumannii JMI2346 = settings: Acinetobacter baumannii
Method in brief: (§1)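 MIC (μg/mL) by CLSI broth microdilution, inoculum 5×10^5 cfu/mL, in cation-adjusted Iso-Sensitest broth containing human apo-transferrin.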

A. baumannii JMI7 = settings: Acinetobacter baumannii
Method in brief: as §1

E. Coli JMI1890 = settings: Escherichia coli, read-out: Minimum Inhibitory Concentration (MIC) E. Coli JMI:1890
Method in brief: as §1

K. pneumoniae SR01358 = settings: Klebsiella pneumoniae
Method in brief: as §1

[1] = JMI2346, OXA-51, TEM, ESBL and OXA-type carbapenemase producing strain, 5×10^5 cfu/mL, cation-adjusted Iso-Sensitest broth containing human Apo-transferrin, read-out: Minimum Inhibitory Concentration (MIC) A. baumannii JMI:2346
[2] = JMI7, PER-1, OXA-23, 51, ESBL and OXA-type carbapenemase producing strain, 5×10^5 cfu/mL, cation-adjusted Iso-Sensitest broth containing human Apo-transferrin, read-out: Minimum Inhibitory Concentration (MIC) A. baumannii JMI:7
[3] = PER-1, TEM-1, ESBL producing strain, 5×10^5 cfu/mL, cation-adjusted Iso-Sensitest broth containing human Apo-transferrin
[4] = SR01358, KPC-2, ESBL and KPC-type carbapenemase producing strain, 5×10^5 cfu/mL, cation-adjusted Iso-Sensitest broth containing human Apo-transferrin, read-out: Minimum Inhibitory Concentration (MIC) K. pneumoniae SR01358

Row | Structure (SMILES) | MIC (A. baumannii JMI2346; [1]) | MIC (A. baumannii JMI7; [2]) | MIC (E. Coli JMI1890; [3]) | MIC (K. pneumoniae SR01358; [4]) | MIC (A. baumannii JMI2346; JMI2346, read-out: Minimum Inhibitory Concentration (MIC) A. baumannii JMI:2346) | MIC (A. baumannii JMI7; JMI7, read-out: Minimum Inhibitory Concentration (MIC) A. baumannii JMI:7) | MIC (E. Coli JMI1890) | MIC (K. pneumoniae SR01358; SR01358, read-out: Minimum Inhibitory Concentration (MIC) K. pneumoniae SR01358)
1 | C[C@@H]1S[C@@H]2[C@H](NC(=O)/C(=N\OC(C)(C)C(=O)O)c3csc(N)n3)C(=O)N2C(C(=O)[O-])=C1C[N+]12CCC(Cn3cnc4cc(O)c(O)cc4c3=O)(CC1)C2 [Compound I-164, (4S,6R,7R)-7-((Z)-2-(2-aminothiazol-4-yl)-2-(((2-carboxypropan-2-yl)oxy)imino)acetamido)-3-((4-((6,7-dihydroxy-4-oxoquinazolin-3(4H)-yl)methyl)-1-azabicyclo[2.2.1]heptan-1-ium-1-yl)methyl)-4-methyl-8-oxo-5-thia-1-azabicyclo[4.2.0]oct-2-ene-2-carboxylate] | 2 µg/mL (≈ 2.6 µM) | 0.5 µg/mL (≈ 0.65 µM) | ≤ 0.031 µg/mL | ≤ 0.031 µg/mL |  |  |  | 
2 | C[C@@H]1S[C@@H]2[C@H](NC(=O)/C(=N\OC(C)(C)C(=O)[O-])c3csc(N)n3)C(=O)N2C(C(=O)[O-])=C1C[N+]12CCC(CC1)N(C(=O)C(=O)c1ccc(O)c(O)c1Cl)CC2.[Na+] [Compound I-75] | 4 µg/mL | 0.25 µg/mL | 0.125 µg/mL | ≤ 0.031 µg/mL |  |  |  | 
3 | C[C@@H]1S[C@@H]2[C@H](NC(=O)/C(=N\OC(C)(C)C(=O)[O-])c3csc(N)n3)C(=O)N2C(C(=O)[O-])=C1C[N+]1(CCNC(=O)C(=O)c2ccc(O)c(O)c2)CCCC1.[Na+] [Compound I-109] | 8 µg/mL | 1 µg/mL | 0.5 µg/mL | 0.063 µg/mL |  |  |  | 
4 | CC[N+](CC)(CCN1C(=O)c2ccc(O)c(O)c2C1=O)CC1=C(C(=O)O)N2C(=O)[C@@H](NC(=O)/C(=N\OC(C)(C)C(=O)[O-])c3csc(N)n3)[C@H]2S[C@H]1C [Compound I-36] | 4 µg/mL (≈ 5.26 µM) | 0.5 µg/mL (≈ 0.658 µM) | 0.5 µg/mL (≈ 0.658 µM) | 0.125 µg/mL (≈ 0.165 µM) |  |  |  | 
5 | C[C@@H]1S[C@@H]2[C@H](NC(=O)/C(=N\OC(C)(C)C(=O)[O-])c3csc(N)n3)C(=O)N2C(C(=O)[O-])=C1C[N+]12CCC(Cn3[nH]c(=O)c4cc(O)c(O)cc4c3=O)(CC1)C2.[Na+] [Compound I-180] | 1 µg/mL | 0.5 µg/mL | ≤ 0.031 µg/mL | ≤ 0.031 µg/mL |  |  |  | 
6 | C[C@@H]1S[C@@H]2[C@H](NC(=O)/C(=N\O[C@@H](CC(=O)[O-])C(=O)[O-])c3csc(N)n3)C(=O)N2C(C(=O)[O-])=C1C[N@+]1(C)[C@@H]2CC[C@H]1C[C@@H](NC(=O)C(=O)c1cc(O)c(O)c(Cl)c1)C2.[Na+].[Na+] [Compound I-13] | 8 µg/mL | 2 µg/mL | 1 µg/mL | 0.063 µg/mL |  |  |  | 
7 | C[C@@H]1S[C@@H]2[C@H](NC(=O)/C(=N\OC(C)(C)C(=O)[O-])c3csc(N)n3)C(=O)N2C(C(=O)O)=C1C[N@+]1(C)[C@@H]2CC[C@H]1C[C@@H](NC(=O)C(=O)c1ccc(O)c(O)c1Cl)C2 [Compound I-20] |  |  |  |  | 0.5 µg/mL (≈ 0.61 µM) | 0.125 µg/mL (≈ 0.152 µM) | 0.063 µg/mL (≈ 0.0768 µM) | ≤ 0.031 µg/mL
8 | C[C@@H]1S[C@@H]2[C@H](NC(=O)/C(=N\OC(C)(C)C(=O)[O-])c3csc(N)n3)C(=O)N2C(C(=O)[O-])=C1C[N+]1(C)C[C@H]2CN(C(=O)c3cc(O)c(O)c(F)c3)C[C@H]2C1.[Na+] (some centres unmarked) [Compound I-69] | 8 µg/mL | 1 µg/mL | 0.25 µg/mL | ≤ 0.031 µg/mL |  |  |  | 
9 | C[C@@H]1S[C@@H]2[C@H](NC(=O)/C(=N\OC(C)(C)C(=O)[O-])c3csc(N)n3)C(=O)N2C(C(=O)[O-])=C1C[N@+]12CCC[C@H]1CN(C(=O)C(=O)c1cc(O)c(O)c(Cl)c1)CC2.[Na+] [Compound I-10] | 8 µg/mL | 1 µg/mL | 1 µg/mL | ≤ 0.031 µg/mL |  |  |  | 
10 | C[C@@H]1S[C@@H]2[C@H](NC(=O)/C(=N\OC(C)(C)C(=O)[O-])c3csc(N)n3)C(=O)N2C(C(=O)[O-])=C1C[N+]12CCC(CNC(=O)c3cc(O)c(O)c(Cl)c3)(CC1)CC2.[Na+] [Compound I-60] | 4 µg/mL | 1 µg/mL | 1 µg/mL | ≤ 0.031 µg/mL |  |  |  | 
11 | C[C@@H]1S[C@@H]2[C@H](NC(=O)/C(=N\OC(C)(C)C(=O)[O-])c3csc(N)n3)C(=O)N2C(C(=O)O)=C1C[N+]12CCC(CNC(=O)/C(=N\O)c3ccc(O)c(O)c3Cl)(CC1)C2 [Compound I-102] | 2 µg/mL (≈ 2.44 µM) | 0.5 µg/mL (≈ 0.609 µM) | 0.125 µg/mL (≈ 0.152 µM) | ≤ 0.031 µg/mL |  |  |  | 
12 | C[C@H]1S[C@@H]2[C@H](NC(=O)/C(=N\OC(C)(C)C(=O)[O-])c3csc(N)n3)C(=O)N2C(C(=O)O)=C1C[N+]1(CCNC(=O)c2ccc(O)c(O)c2Cl)CCCC1 [Compound I-53] | 4 µg/mL (≈ 5.22 µM) | 2 µg/mL (≈ 2.61 µM) | 0.25 µg/mL (≈ 0.326 µM) | 0.25 µg/mL (≈ 0.326 µM) |  |  |  | 
13 | C[C@@H]1S[C@@H]2[C@H](NC(=O)/C(=N\OC(C)(C)C(=O)[O-])c3csc(N)n3)C(=O)N2C(C(=O)[O-])=C1C[N+]12CCC(CC1)N(C(=O)c1cc(O)c(O)c(F)c1)CC2.[Na+] [Compound I-67] | 2 µg/mL | 1 µg/mL | 0.25 µg/mL | ≤ 0.031 µg/mL |  |  |  | 
14 | C[C@@H]1S[C@@H]2[C@H](NC(=O)/C(=N\OC(C)(C)C(=O)[O-])c3csc(N)n3)C(=O)N2C(C(=O)[O-])=C1C[N+]12CCC(CC1)N(C(=O)c1cc(O)c(O)c(Cl)c1)CC2.[Na+] [Compound I-65] | 2 µg/mL | 0.5 µg/mL | 0.125 µg/mL | ≤ 0.031 µg/mL |  |  |  | 
